# From PubChem BioAssay AID1259407 (Chemical Carcinogenesis Research Information System (CCRIS), 2018)
# Activity calls are given as the source filed them. How the calls were made is not given here.
# System: CCRIS mutagenicity, Ames/micronucleus/aberration tests
# Assay: CCRIS mutagenicity studies
# [1] = Test System: AMES SALMONELLA TYPHIMURIUM, Strain/Indicator: TA98, Metabolic Activation: NONE, Method: STANDARD PLATE
# [2] = Test System: AMES SALMONELLA TYPHIMURIUM, Strain/Indicator: TA100, Metabolic Activation: NONE, Method: STANDARD PLATE
# [3] = Test System: AMES SALMONELLA TYPHIMURIUM, Strain/Indicator: TA1535, Metabolic Activation: NONE, Method: STANDARD PLATE
compound,measurement,setting,value
Cn1c(N)nc2ncc(-c3ccccc3)cc21,mutagenic call,"End Point: IN VITRO MICRONUCLEUS, Test System: CHL/IU CELLS, Metabolic Activation: RAT, LIVER, S-9, PHENOBARBITAL AND 5,6-BENZOFLAVONE",active; positive
same,mutagenic call,"End Point: IN VIVO MICRONUCLEUS, Test System: BONE MARROW POLYCHROMATIC ERYTHROCYTES, Species: MOUSE, Strain/Sex: BALB/C/MALE, Route: IP INJECTION",active; positive
same,mutagenic call,"End Point: IN VIVO MICRONUCLEUS, Test System: SPLENOCYTES, Species: MOUSE, Strain/Sex: BALB/C, Route: IO",active; positive only for 48.8 mg dose at either 2 or 16 days after treatment
same,mutagenic call,"Test System: AMES SALMONELLA TYPHIMURIUM, Strain/Indicator: TA98(1,8-DNP6), Metabolic Activation: RAT, LIVER, S-9, AROCLOR, Method: PREINCUBATION",active; positive
same,mutagenic call,"Test System: AMES SALMONELLA TYPHIMURIUM, Strain/Indicator: TA98(1,8-DNP6), Metabolic Activation: RAT, LIVER, S-9, Method: STANDARD PLATE",active; positive
same,mutagenic call,"Test System: AMES SALMONELLA TYPHIMURIUM, Strain/Indicator: TA98, Metabolic Activation: HUMAN, LIVER, MICROSOMES, Method: PREINCUBATION",active; positive
same,mutagenic call,"Test System: AMES SALMONELLA TYPHIMURIUM, Strain/Indicator: TA98, Metabolic Activation: MONKEY, LIVER, MICROSOMES, Method: PREINCUBATION",active; positive
same,mutagenic call,"Test System: AMES SALMONELLA TYPHIMURIUM, Strain/Indicator: TA98, Metabolic Activation: MOUSE, KIDNEY, S-9, PHENETHYL ISOTHIOCYANATE, Method: STANDARD PLATE",inactive; negative
same,mutagenic call,"Test System: AMES SALMONELLA TYPHIMURIUM, Strain/Indicator: TA98, Metabolic Activation: MOUSE, KIDNEY, S-9, Method: STANDARD PLATE",inactive; negative
same,mutagenic call,"Test System: AMES SALMONELLA TYPHIMURIUM, Strain/Indicator: TA98, Metabolic Activation: MOUSE, LIVER, S-9, PHENETHYL ISOTHIOCYANATE, Method: STANDARD PLATE",active; positive
same,mutagenic call,"Test System: AMES SALMONELLA TYPHIMURIUM, Strain/Indicator: TA98, Metabolic Activation: MOUSE, LIVER, S-9, Method: STANDARD PLATE",active; positive
same,mutagenic call,"Test System: AMES SALMONELLA TYPHIMURIUM, Strain/Indicator: TA98, Metabolic Activation: MOUSE, LUNG, S-9, PHENETHYL ISOTHIOCYANATE, Method: STANDARD PLATE",inactive; negative
same,mutagenic call,"Test System: AMES SALMONELLA TYPHIMURIUM, Strain/Indicator: TA98, Metabolic Activation: MOUSE, LUNG, S-9, Method: STANDARD PLATE",inactive; negative
same,mutagenic call,"Test System: AMES SALMONELLA TYPHIMURIUM, Strain/Indicator: TA98, Metabolic Activation: RAT, COLON, S-9, 3-METHYLCHOLANTHRENE, Method: STANDARD PLATE",inactive; negative
same,mutagenic call,"Test System: AMES SALMONELLA TYPHIMURIUM, Strain/Indicator: TA98, Metabolic Activation: RAT, LIVER, HEPATOCYTES, AROCLOR 1254, Method: PREINCUBATION",active; positive
same,mutagenic call,"Test System: AMES SALMONELLA TYPHIMURIUM, Strain/Indicator: TA98, Metabolic Activation: RAT, LIVER, HEPATOCYTES, Method: PREINCUBATION",active; positive
same,mutagenic call,"Test System: AMES SALMONELLA TYPHIMURIUM, Strain/Indicator: TA98, Metabolic Activation: RAT, LIVER, MICROSOMES, Method: PREINCUBATION",active; positive
same,mutagenic call,"Test System: AMES SALMONELLA TYPHIMURIUM, Strain/Indicator: TA98, Metabolic Activation: RAT, LIVER, S-9, AROCLOR 1254, Method: PREINCUBATION",active; positive
same,mutagenic call,"Test System: AMES SALMONELLA TYPHIMURIUM, Strain/Indicator: TA98, Metabolic Activation: RAT, LIVER, S-9, AROCLOR, Method: PREINCUBATION",active; positive
same,mutagenic call,"Test System: AMES SALMONELLA TYPHIMURIUM, Strain/Indicator: TA98, Metabolic Activation: RAT, LIVER, S-9, Method: STANDARD PLATE",active; positive
same,mutagenic call,"Test System: AMES SALMONELLA TYPHIMURIUM, Strain/Indicator: TA98, Metabolic Activation: S-9, Method: MICROSUSPENSION",active; positive
same,mutagenic call,"Test System: AMES SALMONELLA TYPHIMURIUM, Strain/Indicator: TA100, Metabolic Activation: RAT, LIVER, S-9, AROCLOR 1254, Method: PREINCUBATION",inactive; negative
same,mutagenic call,"Test System: AMES SALMONELLA TYPHIMURIUM, Strain/Indicator: TA1978, Metabolic Activation: S-9 (0.5 ML), Method: MICROSUSPENSION",active; positive
same,mutagenic call,"Test System: AMES SALMONELLA TYPHIMURIUM, Strain/Indicator: TA1978, Metabolic Activation: S-9 (2 MG/ML, 0.1 ML), Method: MICROSUSPENSION",inactive; negative
same,mutagenic call,"Test System: AMES SALMONELLA TYPHIMURIUM, Strain/Indicator: TA1978, Metabolic Activation: S-9 (2 MG/ML, 0.25 ML), Method: MICROSUSPENSION",active; positive
same,mutagenic call,"Test System: AMES SALMONELLA TYPHIMURIUM, Strain/Indicator: YG1019, Metabolic Activation: RAT LIVER S-9, AROCLOR, Method: PREINCUBATION",active; positive
same,mutagenic call,"Test System: AMES SALMONELLA TYPHIMURIUM, Strain/Indicator: YG1024, Metabolic Activation: RAT, COLON, S-9, 3-METHYLCHOLANTHRENE, Method: STANDARD PLATE",inactive; negative
same,mutagenic call,"Test System: AMES SALMONELLA TYPHIMURIUM, Strain/Indicator: YG1024, Metabolic Activation: RAT, LIVER, S-9, AROCLOR, Method: PREINCUBATION",active; positive
same,mutagenic call,"Test System: CHINESE HAMSTER V-79, Strain/Indicator: V-79/6-THIOGUANINE, Metabolic Activation: HAMSTER, PANCREAS DUCT, EPITHELIAL CELLS",active; positive
same,mutagenic call,"Test System: CHINESE HAMSTER V-79, Strain/Indicator: V-79/6-THIOGUANINE, Metabolic Activation: HUMAN, PANCREAS DUCT, EPITHELIAL CELLS",active; positive
same,mutagenic call,"Test System: CHINESE HAMSTER V-79, Strain/Indicator: XEMH1A2-MZ (HPRT)/6-THIOGUANINE, Metabolic Activation: NONE",active; positive
same,mutagenic call,"Test System: HUMAN COLON CANCER CELLS, Strain/Indicator: DLD-1 (HPRT)/6-THIOGUANINE, Metabolic Activation: MOUSE LIVER S-9, PHENOBARBITAL AND 5,6-BENZOFLAVONE, Method: SUSPENSION/PLATE",active; positive
same,mutagenic call,"Test System: HUMAN COLON CANCER CELLS, Strain/Indicator: HCT116 (HPRT)/6-THIOGUANINE, Metabolic Activation: MOUSE LIVER S-9, PHENOBARBITAL AND 5,6-BENZOFLAVONE, Method: SUSPENSION/PLATE",active; positive
same,mutagenic call,"Test System: UDS HUMAN HEPATOCYTES, Strain/Indicator: THY INCORP, Metabolic Activation: NONE, Method: AUTORADIOGRAPHY",active; positive
same,mutagenic call,"Test System: UDS MOUSE HEPATOCYTES, Strain/Indicator: THY INCORP, Metabolic Activation: NONE, Method: AUTORADIOGRAPHY",active; positive
CNC(=O)Oc1cccc2c1OC(C)(C)C2,mutagenic call,"End Point: CHROMOSOMAL ABERRATIONS, Test System: BONE MARROW, Species: MOUSE, Strain/Sex: SWISS/MALE, Route: GAVAGE",active; positive (structural changes)
same,mutagenic call,"End Point: IN VIVO MICRONUCLEUS, Test System: BONE MARROW POLYCHROMATIC ERYTHROCYTES, Species: MOUSE, Strain/Sex: KM/MALE, FEMALE, Route: IP INJECTION",inactive; negative
same,mutagenic call,"Test System: AMES SALMONELLA TYPHIMURIUM, Strain/Indicator: TA97A, Metabolic Activation: NONE, Method: STANDARD PLATE",inactive; negative
same,mutagenic call,[1],inactive; negative
same,mutagenic call,[2],inactive; negative
same,mutagenic call,"Test System: AMES SALMONELLA TYPHIMURIUM, Strain/Indicator: TA102, Metabolic Activation: NONE, Method: STANDARD PLATE",inactive; negative
same,mutagenic call,"Test System: AMES SALMONELLA TYPHIMURIUM, Strain/Indicator: TA104, Metabolic Activation: NONE, Method: STANDARD PLATE",inactive; negative
same,mutagenic call,[3],inactive; negative
CCCS(=O)(=O)n1ncc(Cl)c(Cl)c1=O,mutagenic call,[1],inactive; negative
same,mutagenic call,"Test System: AMES SALMONELLA TYPHIMURIUM, Strain/Indicator: TA98, Metabolic Activation: RAT, LIVER, S-9, AROCLOR 1254, Method: STANDARD PLATE",inactive; negative
same,mutagenic call,[2],active; positive
same,mutagenic call,"Test System: AMES SALMONELLA TYPHIMURIUM, Strain/Indicator: TA100, Metabolic Activation: RAT, LIVER, S-9, AROCLOR 1254, Method: STANDARD PLATE",active; positive
same,mutagenic call,[3],inactive; negative
same,mutagenic call,"Test System: AMES SALMONELLA TYPHIMURIUM, Strain/Indicator: TA1535, Metabolic Activation: RAT, LIVER, S-9, AROCLOR 1254, Method: STANDARD PLATE",active; positive
same,mutagenic call,"Test System: AMES SALMONELLA TYPHIMURIUM, Strain/Indicator: TA1537, Metabolic Activation: NONE, Method: STANDARD PLATE",inactive; negative
same,mutagenic call,"Test System: AMES SALMONELLA TYPHIMURIUM, Strain/Indicator: TA1537, Metabolic Activation: RAT, LIVER, S-9, AROCLOR 1254, Method: STANDARD PLATE",inactive; negative
